ChEMBL document CHEMBL5442219

How the values were obtained:
Conditions in all cases: Compound concentration 10 µM
[1] = molecular target: Translocator protein (Homo sapiens) (UniProt P30536)
Description: PDSP Primary Binding target: TSPO - Compounds are tested at 10 uM concentration, plate are incubated at room temperature in the dark for 90 minutes. Reaction are stopped by vacuum filtration onto 0.3% polyethyleneimine soaked filter mats using Filtermate harvester. Scintilation cocktail is then melted onto microwave-dried filters on a hot plate and the radio activity is counted in Microbia counter.

[2] = molecular target: D(3) dopamine receptor (Homo sapiens) (UniProt P35462)
Description: PDSP Primary Binding target: DRD3 - Compounds are tested at 10 uM concentration, plate are incubated at room temperature in the dark for 90 minutes. Reaction are stopped by vacuum filtration onto 0.3% polyethyleneimine soaked filter mats using Filtermate harvester. Scintilation cocktail is then melted onto microwave-dried filters on a hot plate and the radio activity is counted in Microbia counter.

[3] = molecular target: 5-hydroxytryptamine receptor 7 (Homo sapiens) (UniProt P34969)
Description: PDSP Primary Binding target: HTR7 - Compounds are tested at 10 uM concentration, plate are incubated at room temperature in the dark for 90 minutes. Reaction are stopped by vacuum filtration onto 0.3% polyethyleneimine soaked filter mats using Filtermate harvester. Scintilation cocktail is then melted onto microwave-dried filters on a hot plate and the radio activity is counted in Microbia counter.

[4] = molecular target: D(2) dopamine receptor (Homo sapiens) (UniProt P14416)
Description: PDSP Primary Binding target: DRD2 - Compounds are tested at 10 uM concentration, plate are incubated at room temperature in the dark for 90 minutes. Reaction are stopped by vacuum filtration onto 0.3% polyethyleneimine soaked filter mats using Filtermate harvester. Scintilation cocktail is then melted onto microwave-dried filters on a hot plate and the radio activity is counted in Microbia counter.

[5] = molecular target: 5-hydroxytryptamine receptor 1B (Homo sapiens) (UniProt P28222)
Description: PDSP Primary Binding target: HTR1B - Compounds are tested at 10 uM concentration, plate are incubated at room temperature in the dark for 90 minutes. Reaction are stopped by vacuum filtration onto 0.3% polyethyleneimine soaked filter mats using Filtermate harvester. Scintilation cocktail is then melted onto microwave-dried filters on a hot plate and the radio activity is counted in Microbia counter.

[6] = molecular target: Sigma non-opioid intracellular receptor 1 (Homo sapiens) (UniProt Q99720)
Description: PDSP Primary Binding target: SIGMAR1 - Compounds are tested at 10 uM concentration, plate are incubated at room temperature in the dark for 90 minutes. Reaction are stopped by vacuum filtration onto 0.3% polyethyleneimine soaked filter mats using Filtermate harvester. Scintilation cocktail is then melted onto microwave-dried filters on a hot plate and the radio activity is counted in Microbia counter.

[7] = molecular target: T1, Muscarinic acetylcholine receptor M2 (Homo sapiens) (UniProt P08172)
T1 sequence (whole entry): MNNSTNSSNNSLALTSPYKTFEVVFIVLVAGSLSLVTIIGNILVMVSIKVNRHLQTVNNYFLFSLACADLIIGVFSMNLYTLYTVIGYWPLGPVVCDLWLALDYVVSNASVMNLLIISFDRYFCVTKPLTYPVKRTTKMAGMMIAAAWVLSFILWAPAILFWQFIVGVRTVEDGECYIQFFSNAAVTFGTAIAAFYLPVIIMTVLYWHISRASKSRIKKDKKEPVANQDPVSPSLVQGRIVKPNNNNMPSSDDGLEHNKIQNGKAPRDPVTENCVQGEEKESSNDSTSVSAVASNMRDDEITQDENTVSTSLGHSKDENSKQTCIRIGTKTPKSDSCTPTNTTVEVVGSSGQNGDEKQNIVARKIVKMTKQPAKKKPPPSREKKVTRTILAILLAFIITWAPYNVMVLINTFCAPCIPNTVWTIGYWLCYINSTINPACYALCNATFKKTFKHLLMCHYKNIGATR
Description: PDSP Primary Binding target: CHRM2 - Compounds are tested at 10 uM concentration, plate are incubated at room temperature in the dark for 90 minutes. Reaction are stopped by vacuum filtration onto 0.3% polyethyleneimine soaked filter mats using Filtermate harvester. Scintilation cocktail is then melted onto microwave-dried filters on a hot plate and the radio activity is counted in Microbia counter.

[8] = molecular target: Sodium-dependent dopamine transporter (Homo sapiens) (UniProt Q01959)
Description: PDSP Primary Binding target: SLC6A3 - Compounds are tested at 10 uM concentration, plate are incubated at room temperature in the dark for 90 minutes. Reaction are stopped by vacuum filtration onto 0.3% polyethyleneimine soaked filter mats using Filtermate harvester. Scintilation cocktail is then melted onto microwave-dried filters on a hot plate and the radio activity is counted in Microbia counter.

[9] = molecular target: 5-hydroxytryptamine receptor 5A (Homo sapiens) (UniProt P47898)
Description: PDSP Primary Binding target: HTR5A - Compounds are tested at 10 uM concentration, plate are incubated at room temperature in the dark for 90 minutes. Reaction are stopped by vacuum filtration onto 0.3% polyethyleneimine soaked filter mats using Filtermate harvester. Scintilation cocktail is then melted onto microwave-dried filters on a hot plate and the radio activity is counted in Microbia counter.

[10] = molecular target: T2, 5-hydroxytryptamine receptor 1A (Homo sapiens) (UniProt P08908)
T2 sequence (whole entry): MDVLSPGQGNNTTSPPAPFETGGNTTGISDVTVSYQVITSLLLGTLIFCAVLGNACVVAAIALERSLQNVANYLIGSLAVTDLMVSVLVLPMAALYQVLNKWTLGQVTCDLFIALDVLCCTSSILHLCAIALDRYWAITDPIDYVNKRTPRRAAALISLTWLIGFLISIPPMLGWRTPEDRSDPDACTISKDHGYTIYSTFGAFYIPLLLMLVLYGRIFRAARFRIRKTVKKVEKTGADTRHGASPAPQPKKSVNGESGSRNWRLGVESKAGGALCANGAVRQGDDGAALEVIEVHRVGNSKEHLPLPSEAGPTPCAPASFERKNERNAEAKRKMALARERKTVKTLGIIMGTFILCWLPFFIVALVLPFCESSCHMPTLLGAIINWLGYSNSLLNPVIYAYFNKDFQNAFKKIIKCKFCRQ
Description: PDSP Primary Binding target: HTR1A - Compounds are tested at 10 uM concentration, plate are incubated at room temperature in the dark for 90 minutes. Reaction are stopped by vacuum filtration onto 0.3% polyethyleneimine soaked filter mats using Filtermate harvester. Scintilation cocktail is then melted onto microwave-dried filters on a hot plate and the radio activity is counted in Microbia counter.

[11] = molecular target: T3, Alpha-2C adrenergic receptor (Homo sapiens) (UniProt P18825)
T3 sequence (whole entry): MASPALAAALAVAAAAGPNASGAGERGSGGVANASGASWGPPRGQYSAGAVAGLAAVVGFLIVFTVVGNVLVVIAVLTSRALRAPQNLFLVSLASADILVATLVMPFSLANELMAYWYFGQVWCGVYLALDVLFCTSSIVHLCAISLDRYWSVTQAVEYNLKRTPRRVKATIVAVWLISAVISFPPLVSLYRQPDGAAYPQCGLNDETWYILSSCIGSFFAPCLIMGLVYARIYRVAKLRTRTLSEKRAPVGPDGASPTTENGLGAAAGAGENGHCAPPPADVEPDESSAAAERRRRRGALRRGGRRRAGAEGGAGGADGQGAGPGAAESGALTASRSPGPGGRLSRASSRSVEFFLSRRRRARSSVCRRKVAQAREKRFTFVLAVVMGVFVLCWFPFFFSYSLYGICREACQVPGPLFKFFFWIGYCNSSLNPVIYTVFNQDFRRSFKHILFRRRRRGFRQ
Description: PDSP Primary Binding target: ADRA2C - Compounds are tested at 10 uM concentration, plate are incubated at room temperature in the dark for 90 minutes. Reaction are stopped by vacuum filtration onto 0.3% polyethyleneimine soaked filter mats using Filtermate harvester. Scintilation cocktail is then melted onto microwave-dried filters on a hot plate and the radio activity is counted in Microbia counter.

[12] = molecular target: T4, Muscarinic acetylcholine receptor M5 (Homo sapiens) (UniProt P08912)
T4 sequence (whole entry): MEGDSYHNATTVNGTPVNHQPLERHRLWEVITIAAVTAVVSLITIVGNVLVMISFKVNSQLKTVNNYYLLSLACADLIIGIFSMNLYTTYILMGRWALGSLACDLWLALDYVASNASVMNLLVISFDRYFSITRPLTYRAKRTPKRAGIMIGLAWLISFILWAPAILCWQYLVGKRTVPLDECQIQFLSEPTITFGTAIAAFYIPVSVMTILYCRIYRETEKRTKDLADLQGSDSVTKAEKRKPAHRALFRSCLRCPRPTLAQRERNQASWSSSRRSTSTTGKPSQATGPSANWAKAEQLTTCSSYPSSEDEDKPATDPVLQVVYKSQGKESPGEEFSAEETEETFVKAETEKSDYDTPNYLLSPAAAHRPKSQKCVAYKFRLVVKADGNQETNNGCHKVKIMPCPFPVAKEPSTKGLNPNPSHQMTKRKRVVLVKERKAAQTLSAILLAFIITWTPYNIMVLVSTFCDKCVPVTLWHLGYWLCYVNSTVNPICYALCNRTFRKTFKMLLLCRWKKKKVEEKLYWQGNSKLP
Description: PDSP Primary Binding target: CHRM5 - Compounds are tested at 10 uM concentration, plate are incubated at room temperature in the dark for 90 minutes. Reaction are stopped by vacuum filtration onto 0.3% polyethyleneimine soaked filter mats using Filtermate harvester. Scintilation cocktail is then melted onto microwave-dried filters on a hot plate and the radio activity is counted in Microbia counter.

[13] = molecular target: Histamine H1 receptor (Homo sapiens) (UniProt P35367)
Sequence of Histamine H1 receptor (Homo sapiens) (P35367 whole entry): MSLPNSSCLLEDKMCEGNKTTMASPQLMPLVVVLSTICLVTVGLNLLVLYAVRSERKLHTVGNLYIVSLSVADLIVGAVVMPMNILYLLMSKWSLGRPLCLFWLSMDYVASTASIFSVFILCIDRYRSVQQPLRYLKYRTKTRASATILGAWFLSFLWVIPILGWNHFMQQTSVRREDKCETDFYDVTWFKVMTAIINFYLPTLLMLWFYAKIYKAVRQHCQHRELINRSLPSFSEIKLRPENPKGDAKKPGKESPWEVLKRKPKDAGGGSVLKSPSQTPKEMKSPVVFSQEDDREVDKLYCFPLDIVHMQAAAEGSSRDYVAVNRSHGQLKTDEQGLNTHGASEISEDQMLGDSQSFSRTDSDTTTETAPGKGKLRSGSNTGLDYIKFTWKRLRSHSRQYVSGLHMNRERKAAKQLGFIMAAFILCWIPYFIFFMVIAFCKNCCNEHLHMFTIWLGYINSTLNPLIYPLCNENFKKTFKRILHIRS
Description: PDSP Primary Binding target: HRH1 - Compounds are tested at 10 uM concentration, plate are incubated at room temperature in the dark for 90 minutes. Reaction are stopped by vacuum filtration onto 0.3% polyethyleneimine soaked filter mats using Filtermate harvester. Scintilation cocktail is then melted onto microwave-dried filters on a hot plate and the radio activity is counted in Microbia counter.

Sequence of 5-hydroxytryptamine receptor 5A (Homo sapiens) (P47898 whole entry): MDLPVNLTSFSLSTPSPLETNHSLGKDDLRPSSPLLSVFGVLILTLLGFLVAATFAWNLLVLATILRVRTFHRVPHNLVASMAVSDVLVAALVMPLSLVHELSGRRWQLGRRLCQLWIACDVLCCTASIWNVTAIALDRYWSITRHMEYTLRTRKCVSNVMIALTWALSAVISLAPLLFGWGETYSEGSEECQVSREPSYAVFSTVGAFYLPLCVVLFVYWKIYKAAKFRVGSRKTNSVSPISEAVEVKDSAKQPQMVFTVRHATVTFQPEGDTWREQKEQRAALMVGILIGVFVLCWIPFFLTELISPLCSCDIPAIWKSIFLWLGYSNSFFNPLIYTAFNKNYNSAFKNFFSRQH
Sequence of Sigma non-opioid intracellular receptor 1 (Homo sapiens) (Q99720 whole entry): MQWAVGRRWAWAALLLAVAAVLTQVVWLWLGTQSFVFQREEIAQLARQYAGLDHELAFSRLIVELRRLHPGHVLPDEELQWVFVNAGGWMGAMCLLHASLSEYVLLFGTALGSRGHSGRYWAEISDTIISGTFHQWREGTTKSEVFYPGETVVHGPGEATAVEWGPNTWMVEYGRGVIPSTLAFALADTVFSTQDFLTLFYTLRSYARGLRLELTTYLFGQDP
Sequence of 5-hydroxytryptamine receptor 1B (Homo sapiens) (P28222 whole entry): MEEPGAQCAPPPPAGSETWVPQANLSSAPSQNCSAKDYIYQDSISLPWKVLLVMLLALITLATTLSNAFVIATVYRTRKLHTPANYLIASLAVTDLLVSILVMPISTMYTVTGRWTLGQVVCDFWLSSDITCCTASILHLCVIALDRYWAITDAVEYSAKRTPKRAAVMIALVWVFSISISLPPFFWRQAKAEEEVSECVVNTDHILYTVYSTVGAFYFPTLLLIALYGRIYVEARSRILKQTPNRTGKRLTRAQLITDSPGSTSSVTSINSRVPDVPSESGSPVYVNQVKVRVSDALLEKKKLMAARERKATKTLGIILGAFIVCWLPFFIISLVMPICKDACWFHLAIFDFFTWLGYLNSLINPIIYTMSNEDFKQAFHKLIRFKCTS
Sequence of Sodium-dependent dopamine transporter (Homo sapiens) (Q01959 whole entry): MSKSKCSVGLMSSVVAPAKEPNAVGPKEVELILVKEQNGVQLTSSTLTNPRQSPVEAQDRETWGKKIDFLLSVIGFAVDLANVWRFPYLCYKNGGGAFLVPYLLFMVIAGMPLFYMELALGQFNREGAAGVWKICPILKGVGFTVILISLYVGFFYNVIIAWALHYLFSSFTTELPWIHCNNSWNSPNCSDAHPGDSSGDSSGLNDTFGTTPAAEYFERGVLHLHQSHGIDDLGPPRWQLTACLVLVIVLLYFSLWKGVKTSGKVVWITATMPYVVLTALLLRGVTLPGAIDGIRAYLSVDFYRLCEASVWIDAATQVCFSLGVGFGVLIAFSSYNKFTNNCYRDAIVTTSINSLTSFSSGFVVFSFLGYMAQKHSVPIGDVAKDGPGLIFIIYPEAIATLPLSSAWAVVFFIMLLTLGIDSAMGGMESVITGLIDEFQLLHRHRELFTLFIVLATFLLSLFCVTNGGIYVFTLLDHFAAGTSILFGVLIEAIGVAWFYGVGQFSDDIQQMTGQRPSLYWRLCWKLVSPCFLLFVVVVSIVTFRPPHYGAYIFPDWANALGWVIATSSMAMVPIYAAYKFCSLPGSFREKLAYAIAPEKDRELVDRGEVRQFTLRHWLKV
Sequence of D(3) dopamine receptor (Homo sapiens) (P35462 whole entry): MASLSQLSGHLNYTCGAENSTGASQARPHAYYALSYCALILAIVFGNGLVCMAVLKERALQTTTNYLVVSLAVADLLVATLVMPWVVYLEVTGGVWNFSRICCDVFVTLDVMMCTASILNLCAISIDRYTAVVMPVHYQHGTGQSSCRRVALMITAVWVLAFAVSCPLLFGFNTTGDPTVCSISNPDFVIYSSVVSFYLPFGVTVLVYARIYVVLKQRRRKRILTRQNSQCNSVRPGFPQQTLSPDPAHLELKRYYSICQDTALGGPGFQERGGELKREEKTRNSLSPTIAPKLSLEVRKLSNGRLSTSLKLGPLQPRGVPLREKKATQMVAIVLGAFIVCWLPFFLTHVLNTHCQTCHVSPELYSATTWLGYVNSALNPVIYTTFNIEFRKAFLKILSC
Sequence of D(2) dopamine receptor (Homo sapiens) (P14416 whole entry): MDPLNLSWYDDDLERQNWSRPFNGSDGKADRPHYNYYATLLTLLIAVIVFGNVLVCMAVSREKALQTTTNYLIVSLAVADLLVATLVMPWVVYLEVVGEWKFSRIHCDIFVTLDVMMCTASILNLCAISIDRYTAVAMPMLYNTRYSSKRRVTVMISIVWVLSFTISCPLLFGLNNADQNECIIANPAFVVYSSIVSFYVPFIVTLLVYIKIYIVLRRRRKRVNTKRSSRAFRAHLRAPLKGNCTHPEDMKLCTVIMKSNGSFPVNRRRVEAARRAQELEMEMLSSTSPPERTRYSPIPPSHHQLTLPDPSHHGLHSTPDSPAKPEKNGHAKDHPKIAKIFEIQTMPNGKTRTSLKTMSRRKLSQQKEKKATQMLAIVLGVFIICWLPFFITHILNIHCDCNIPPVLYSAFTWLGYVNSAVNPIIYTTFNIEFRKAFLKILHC
Sequence of 5-hydroxytryptamine receptor 7 (Homo sapiens) (P34969 whole entry): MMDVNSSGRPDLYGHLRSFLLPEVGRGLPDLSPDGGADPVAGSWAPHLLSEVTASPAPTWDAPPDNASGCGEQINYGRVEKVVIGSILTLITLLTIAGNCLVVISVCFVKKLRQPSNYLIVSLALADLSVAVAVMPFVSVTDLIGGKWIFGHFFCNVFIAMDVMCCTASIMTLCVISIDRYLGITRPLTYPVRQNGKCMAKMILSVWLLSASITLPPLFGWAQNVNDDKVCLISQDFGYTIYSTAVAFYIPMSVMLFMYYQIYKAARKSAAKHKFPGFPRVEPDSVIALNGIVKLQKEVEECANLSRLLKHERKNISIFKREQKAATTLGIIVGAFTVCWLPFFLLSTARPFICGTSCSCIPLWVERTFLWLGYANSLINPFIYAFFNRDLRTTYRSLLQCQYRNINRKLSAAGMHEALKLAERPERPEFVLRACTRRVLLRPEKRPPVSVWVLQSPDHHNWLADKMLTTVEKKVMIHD
Sequence of Translocator protein (Homo sapiens) (P30536 whole entry): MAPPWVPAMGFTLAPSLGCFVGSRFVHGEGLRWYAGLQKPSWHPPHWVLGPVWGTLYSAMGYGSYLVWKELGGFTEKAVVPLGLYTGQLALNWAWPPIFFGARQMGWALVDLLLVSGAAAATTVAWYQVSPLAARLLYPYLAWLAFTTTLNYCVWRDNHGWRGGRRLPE

Compound: CC(C)NCC(O)COc1cccc2[nH]ccc12 (centres undefined)
- inhibition [1]: 38.5%
- inhibition [2]: 65.4%
- inhibition [3]: 37.8%
- inhibition [4]: 30.5%
- inhibition [5]: 22%
- inhibition [6]: 38.7%
- inhibition [7]: -9.11%
- inhibition [8]: 21.3%
- inhibition [9]: 52.6%
- inhibition [10]: 94.1%
- inhibition [11]: 1.35%
- inhibition [12]: 10.5%

Compound: Brc1c(NC2=NCCN2)ccc2nccnc12
- inhibition [1]: -7.41%
- inhibition [2]: 29.2%
- inhibition [3]: 69.9%
- inhibition [4]: 12.5%
- inhibition [5]: 7.31%
- inhibition [8]: -6.87%
- inhibition [10]: -4.03%
- inhibition [11]: 75.6%

Compound: CC1CCN(CC[C@H]2CCCN2S(=O)(=O)c2cccc(O)c2)CC1
- inhibition [1]: -7.14%
- inhibition [2]: 61.6%
- inhibition [13]: 44.4%
- inhibition [3]: 85.8%
- inhibition [4]: 33.5%
- inhibition [5]: 78.2%
- inhibition [6]: -8.64%
- inhibition [8]: 46.1%
- inhibition [9]: 91.7%
- inhibition [10]: 0.65%
- inhibition [11]: 51.5%
- inhibition [12]: 1.99%

Compound: CNC[C@H](O)c1ccc(O)c(O)c1
- inhibition [1]: -0.39%
- inhibition [2]: 47.1%
- inhibition [3]: -8.3%
- inhibition [4]: 15.9%
- inhibition [5]: 11.1%
- inhibition [8]: 32.7%
- inhibition [9]: -0.93%
- inhibition [10]: -3.44%
- inhibition [11]: 66.7%

Compound: CCCn1c(=O)c2nc(C34CC5CC(CC3C5)C4)[nH]c2n(CCC)c1=O
- inhibition [1]: 25.5%
- inhibition [2]: -4.54%
- inhibition [13]: 8.71%
- inhibition [3]: 5.98%
- inhibition [5]: 19.3%
- inhibition [6]: 32.7%
- inhibition [8]: 50%
- inhibition [10]: -4.72%
- inhibition [11]: 9.01%

Compound: CCC(=O)NCC[C@@H]1CCc2ccc3c(c21)CCO3
- inhibition [1]: 27.6%
- inhibition [2]: 8.49%
- inhibition [13]: -1.68%
- inhibition [3]: 12.4%
- inhibition [4]: 2.72%
- inhibition [5]: 15.8%
- inhibition [6]: 89.6%
- inhibition [8]: -2.02%
- inhibition [9]: 21.8%
- inhibition [10]: -7.41%
- inhibition [11]: -9.25%

Compound: N#Cc1c(N)nc(SCc2csc(-c3ccc(Cl)cc3)n2)c(C#N)c1-c1ccc(OCCO)cc1
- inhibition [1]: 57.6%
- inhibition [2]: 12.5%
- inhibition [13]: 14.2%
- inhibition [3]: 3.33%
- inhibition [5]: 13%
- inhibition [6]: 39%
- inhibition [8]: 64.1%
- inhibition [9]: -4.31%
- inhibition [10]: -0.89%
- inhibition [11]: 3.52%

Compound: O=C1N/C(=N/c2ccccc2F)S/C1=C\c1ccc(C(=O)O)cc1
- inhibition [1]: 4.31%
- inhibition [2]: 5.3%
- inhibition [13]: 42.9%
- inhibition [4]: 0.9%
- inhibition [5]: -8.69%
- inhibition [6]: 17.9%
- inhibition [8]: 33.1%
- inhibition [10]: 2.18%
- inhibition [11]: 2.98%

Compound: Clc1cccc(Cl)c1NC1=NCCN1
- inhibition [1]: 10.8%
- inhibition [2]: 19.4%
- inhibition [3]: 77.2%
- inhibition [5]: 13.1%
- inhibition [8]: 20.8%
- inhibition [9]: 20.1%
- inhibition [10]: 8%
- inhibition [11]: 84.7%
- inhibition [12]: 0.71%

Compound: COc1ccc2[nH]cc(CCNC(C)=O)c2c1
- inhibition [2]: -7.6%
- inhibition [3]: -7.65%
- inhibition [4]: 32.8%
- inhibition [5]: 12.5%
- inhibition [6]: 29.1%
- inhibition [8]: 29.5%
- inhibition [10]: 5.08%

Compound: COC(=O)[C@H]1[C@H]2C[C@H]3c4[nH]c5ccccc5c4CCN3C[C@H]2CC[C@@H]1O
- inhibition [1]: 7.14%
- inhibition [2]: 31%
- inhibition [3]: 85.2%
- inhibition [4]: 49.4%
- inhibition [5]: 98.4%
- inhibition [6]: 63.2%
- inhibition [8]: 6.37%
- inhibition [9]: 48.2%
- inhibition [10]: 1.62%
- inhibition [11]: 98.7%
- inhibition [12]: 4.29%

Compound: OC[C@H]1O[C@@H](n2cnc3c(NC4CCCC4)ncnc32)[C@H](O)[C@@H]1O
- inhibition [2]: 7.26%
- inhibition [13]: 2.72%
- inhibition [3]: 16.1%
- inhibition [4]: 25%
- inhibition [5]: 15.9%
- inhibition [6]: 51.9%
- inhibition [7]: 7.74%
- inhibition [8]: 36.9%
- inhibition [9]: -5.9%
- inhibition [10]: -5.74%

Compound: CCc1nn2c(C)cc(C)nc2c1Cc1ccc(-c2nnc(C3CCNCC3)o2)cc1
- inhibition [2]: -9.36%
- inhibition [13]: 9.84%
- inhibition [3]: 5.87%
- inhibition [4]: -9.55%
- inhibition [5]: 16.6%
- inhibition [6]: 52.4%
- inhibition [8]: 4.13%
- inhibition [9]: 3.02%
- inhibition [10]: -1.59%
- inhibition [11]: 31.1%

Compound: NC[C@H](O)c1ccc(O)c(O)c1
- inhibition [1]: 4.34%
- inhibition [2]: 57.9%
- inhibition [3]: -5%
- inhibition [4]: 6.01%
- inhibition [5]: 10.7%
- inhibition [6]: 39.1%
- inhibition [7]: -6.81%
- inhibition [8]: 21.8%
- inhibition [10]: -9.29%
- inhibition [11]: 79.4%

Compound: CC(C)(C(=O)O)c1ccc(C(O)CCCN2CCC(C(O)(c3ccccc3)c3ccccc3)CC2)cc1 (centres undefined)
- inhibition [1]: -4.11%
- inhibition [2]: 53%
- inhibition [3]: 4.24%
- inhibition [4]: 65.8%
- inhibition [5]: 8.43%
- inhibition [6]: 35.9%
- inhibition [8]: 21.9%
- inhibition [10]: -5.94%
- inhibition [11]: -7.6%

Compound: CC1(C)SSC(C)(C)[C@@H](NC(=O)[C@@H](N)Cc2ccc(O)cc2)C(=O)NCC(=O)N[C@@H](Cc2ccccc2)C(=O)N[C@H]1C(=O)O
- inhibition [2]: 0.23%
- inhibition [13]: 3.33%
- inhibition [3]: -0.55%
- inhibition [4]: 30.3%
- inhibition [5]: 7.79%
- inhibition [6]: 21.7%
- inhibition [7]: -9.99%
- inhibition [8]: 27.3%
- inhibition [9]: -9.01%
- inhibition [10]: 3.47%
- inhibition [11]: -6.75%

Compound: Cc1cc(C)c(N)c(C#Cc2cccc(F)c2)n1
- inhibition [1]: 39.6%
- inhibition [2]: 9.35%
- inhibition [13]: 9.77%
- inhibition [3]: 7.78%
- inhibition [4]: 0.33%
- inhibition [5]: 16.6%
- inhibition [6]: 3.28%
- inhibition [8]: 9.26%
- inhibition [9]: -5.73%
- inhibition [10]: -6.48%
- inhibition [11]: 13.5%

Compound: O=C(O)Cn1c(C(=O)Nc2nc(-c3ccccc3Cl)cs2)cc2ccccc21
- inhibition [1]: 20.4%
- inhibition [2]: 7.11%
- inhibition [13]: -9.22%
- inhibition [4]: 14.1%
- inhibition [5]: 11.2%
- inhibition [6]: 9.14%
- inhibition [7]: 0.82%
- inhibition [8]: 47.6%
- inhibition [9]: 18.6%
- inhibition [10]: -8.88%
- inhibition [11]: 0.91%
